target: T1, human JAK2 (Homo sapiens, UniProt O60674); assay: In vitro JAK kinase assay (HTRF, phosphorylation of biotinylated peptide); assay type: biochemical; details: catalytic domain a.a. 828-1132, 30 μM ATP, 500 nM peptide, room temperature 1 hr; read-out: JAK-2 IC50
T1 construct: JAK2 (a.a. 828-1132); His tag (N); made in house; host or cells: insect cells (baculovirus)
How it was run: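 IC50 from HTRF detection (Eu-Py20 antibody, SA-APC) of biotinylated-peptide phosphorylation (500 nM), run 1 h at RT. Enzyme: N-His human JAK2 kinase domain a.a. 828-1132 from insect cells; ATP 30 μM; buffer 50 mM Tris pH 7.8 with NaCl, DTT, BSA.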

T1 sequence (O60674 828-1132): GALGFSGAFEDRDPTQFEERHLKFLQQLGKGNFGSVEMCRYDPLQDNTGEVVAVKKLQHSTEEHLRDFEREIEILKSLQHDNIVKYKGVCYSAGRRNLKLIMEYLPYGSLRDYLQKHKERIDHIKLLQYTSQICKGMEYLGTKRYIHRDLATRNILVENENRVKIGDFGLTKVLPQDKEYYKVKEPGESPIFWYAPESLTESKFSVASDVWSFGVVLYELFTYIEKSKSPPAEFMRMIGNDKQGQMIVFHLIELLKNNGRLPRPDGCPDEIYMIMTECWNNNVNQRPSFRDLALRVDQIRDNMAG

IC50, < 100 nM:
N#CCC(C1CCCC1)n1cc(-c2ccnc(Nc3ccc(N4CCOCC4)cc3)n2)cn1 (racemic) [Example 35, 3-cyclopentyl-3-(4-(2-(4-morpholinophenylamino)pyrimidin-4-yl)-1H-pyrazol-1-yl)propanenitrile]
N#CCC(C1CCCC1)n1cc(-c2ccnc(Nc3ccccc3)n2)cn1 (racemic) [Example 36, 3-cyclopentyl-3-(4-(2-(phenylamino)pyrimidin-4-yl)-1H-pyrazol-1-yl)propanenitrile]
N#CCC(C1CCCC1)n1cc(-c2ccnc(Nc3cccc(-c4cnco4)c3)n2)cn1 (racemic) [Example 37, 3-cyclopentyl-3-(4-(2-(3-(oxazol-5-yl)phenylamino)pyrimidin-4-yl)-1H-pyrazol-1-yl)propanenitrile]
COc1ccc(Nc2nccc(-c3cnn(C(CC#N)C4CCCC4)c3)n2)cc1 (racemic) [Example 38, 3-cyclopentyl-3-(4-(2-(4-methoxyphenylamino)pyrimidin-4-yl)-1H-pyrazol-1-yl)propanenitrile]
CC(=O)Nc1ccc(Nc2nccc(-c3cnn(C(CC#N)C4CCCC4)c3)n2)cc1 (racemic) [Example 39, N-(4-(4-(1-(2-cyano-1-cyclopentylethyl)-1H-pyrazol-4-yl)pyrimidin-2-ylamino)phenyl)acetamide]
CN(C)C(=O)c1ccc(Nc2nccc(-c3cnn(C(CC#N)C4CCCC4)c3)n2)cc1 (racemic) [Example 40, 4-(4-(1-(2-cyano-1-cyclopentylethyl)-1H-pyrazol-4-yl)pyrimidin-2-ylamino)-N,N-dimethylbenzamide]
N#CCC(C1CCCC1)n1cc(-c2ccnc(Nc3ccc(N4CCNCC4)cc3)n2)cn1 (racemic) [Example 41, 3-cyclopentyl-3-(4-(2-(4-(piperazin-1-yl)phenylamino)pyrimidin-4-yl)-1H-pyrazol-1-yl)propanenitrile]
CCS(=O)(=O)N1CCC(CC(CC#N)n2cc(-c3ccnc(Nc4ccc(N5CCOCC5)cc4)n3)cn2)CC1 (racemic) [Example 42, 4-(1-(ethylsulfonyl)piperidin-4-yl)-3-(4-(2-(4-morpholinophenylamino)pyrimidin-4-yl)-1H-pyrazol-1-yl)butanenitrile]
CCS(=O)(=O)N1CCC(CC(CC#N)n2cc(-c3ccnc(Nc4ccc(-n5cccn5)cc4)n3)cn2)CC1 (racemic) [Example 43, 3-(4-(2-(4-(1H-pyrazol-1-yl)phenylamino)pyrimidin-4-yl)-1H-pyrazol-1-yl)-4-(1-(ethylsulfonyl)piperidin-4-yl)butanenitrile]
CCS(=O)(=O)N1CCC(CC(CC#N)n2cc(-c3ccnc(Nc4ccccc4)n3)cn2)CC1 (racemic) [Example 44, 4-(1-(ethylsulfonyl)piperidin-4-yl)-3-(4-(2-(phenylamino)pyrimidin-4-yl)-1H-pyrazol-1-yl)butanenitrile]
CC(=O)Nc1ccc(Nc2nccc(-c3cnn(C(CC#N)CC4CCN(S(=O)(=O)c5ccn(C)n5)CC4)c3)n2)cc1 (racemic) [Example 45, N-(4-(4-(1-(1-cyano-3-(1-(1-methyl-1H-pyrazol-3-ylsulfonyl)piperidin-4-yl)propan-2-yl)-1H-pyrazol-4-yl)pyrimidin-2-ylamino)phenyl)acetamide]
CCS(=O)(=O)N1CCC(CC(CC#N)n2cc(-c3ccnc(Nc4ccc(C(=O)N(C)C)cc4)n3)cn2)CC1 (racemic) [Example 46, 4-(4-(1-(1-cyano-3-(1-(ethylsulfonyl)piperidin-4-yl)propan-2-yl)-1H-pyrazol-4-yl)pyrimidin-2-ylamino)-N,N-dimethylbenzamide]
Cn1ccc(S(=O)(=O)N2CCC(CC(CC#N)n3cc(-c4ccnc(Nc5ccc(C(N)=O)cc5)n4)cn3)CC2)n1 (racemic) [Example 47, 4-(4-(1-(1-cyano-3-(1-(1-methyl-1H-pyrazol-3-ylsulfonyl)piperidin-4-yl)propan-2-yl)-1H-pyrazol-4-yl)pyrimidin-2-ylamino)benzamide]
